Where only a bound is given, the exact number is not on record here.

Results on 89 compounds are retold here after a melting point compilation (Tetko et al.; mined from patent text by program, amines drawn as free bases though some values may be those of a salt).

On to `O=S(=O)(c1ccc(Cl)cc1)C(C/C=C\CO)c1cc(F)ccc1F` (centres undefined), for which the melting point – broadly, the temperature, or range, at which the solid turns liquid – was in the range of 60 to 63 °C.

Compound `Cc1cccc(-c2[nH]c(C(C)C)nc2-c2cccc(-c3ccc(NS(C)(=O)=O)cc3F)c2)n1` came in with a melting point of 179 to 184 °C.

In turn, `COC(=O)C1CCC2C3CCC4CC(O)CCC4(C)C3C(NC3CCCC3)CC12C` (centres undefined) gave a melting point of 143 to 145 °C.

Compound `N#CCNC(=O)C1(NC(=O)c2ccc(N3CCN(C(=O)OCC4c5ccccc5-c5ccccc54)CC3)cc2)CCCCC1` had a melting point of 192 to 194 °C.

For the compound `O=C(O)c1ccc(Cc2ccccc2)[nH]1`, the melting point is 130 to 134 °C.

`CCCCC(Cn1cncn1)(C(=O)O)c1ccccc1OC` (centres undefined) registered a melting point of 198 °C.

In the case of `CCOC(=O)CCCCC(=O)c1c(C)cc(C)c(C)c1O`, the melting point fell in the range of 72 to 73 °C.

`CCOC(=O)c1cn(C2CC2)c2cc(F)c(F)c(N(Cc3ccccc3)C(C)=O)c2c1=O` had a melting point of 147 to 150 °C.

Consider `O=C1C=C(O)CC(CCC2CCCC2)(C2CCCC2)O1` (centres undefined), for which the melting point is 130 to 132 °C.

For `CCCCNCC(O)COc1ccc(-c2nc(C(F)(F)F)c[nH]2)cc1` (centres undefined), the melting point lay within 151 to 154 °C.

`CCC(ON=c1c2nccc3cccc(c32)n2cccc12)C(=O)O` (centres undefined) had a melting point of 180 °C.

`O=C(O)c1ccccc1NCCCN1c2ccccc2CCc2ccc(Cl)cc21` showed a melting point of 176 to 178 °C.

`CC1CCOCc2nc3c(N)nc4cc(Br)ccc4c3n21` (centres undefined): the melting point was 247 to 248 °C.

`CCOc1nnc2cc(Cl)ccc2n1` gave a melting point of 90 to 92 °C.

Turning to `CC(=O)Oc1cc(S(=O)(=O)Oc2ccc(C(=O)c3c(Cc4ccc(Br)cc4)sc(C)c3C)cc2C2CCCC2)ccc1C(=O)O`, the melting point was 113 to 114 °C.

Take `CCC1CCn2c(nc(-c3ccncn3)cc2=O)N1` (centres undefined): the melting point was in the range of 226 to 228 °C.

Turning to `COc1ccc(C2=C(CC(C)N(CCO)C(C)C)C(=O)NCCC2)cc1` (centres undefined), the melting point lay in the range of 109 to 111 °C.

As for `CN(C)S(=O)(=O)c1cc(N=C=O)ccc1Cl`, the melting point was in the range of 82 to 85 °C.

With `COc1cc(CCNC(=O)C(NC(=O)OC(C)(C)C)C(C)C)ccc1OCC#Cc1ccc(Cl)cc1` (centres undefined), the melting point lay in the range of 141 to 142 °C.

In the case of `NC(=O)c1ccc(-c2ccc3nnn(Cc4c(F)cc5ncccc5c4F)c3n2)cc1Cl`, the melting point was 216 to 219 °C.

In turn, `CN(C)C=C(C(=O)c1cccc2c1OC(F)(F)O2)C(=O)C1CC1` returned a melting point of 118 to 119 °C.

Consider `CSc1nc(=O)n(-c2ccc(Cl)cc2)c(=O)[nH]1`, for which the melting point fell in the range of 292 to 295 °C.

As for `CC(=NOCCOc1ccc(CC2SC(=O)NC2=O)cc1)c1cccc(O)c1` (centres undefined), the melting point was in the range of 133 to 135 °C.

`Nc1nc(N2CCC2)c2ncn(C3C=CC(CO)C3)c2n1` (centres undefined): the melting point fell in the range of 187 to 189 °C.

Turning to `CCC(=O)CC(C(C(=O)CC)c1ccc([N+](=O)[O-])cc1)[N+](=O)[O-]` (centres undefined), the melting point lay in the range of 61.5 to 65.6 °C.

Consider `CCOCc1nc2c(N)nc3ccc(O)cc3c2n1CC(C)(C)NC(=O)C1CCCCC1`, for which the melting point was in the range of 231 to 232 °C.

Compound `CC1(C)OCC(COS(=O)(=O)c2ccc([N+](=O)[O-])cc2)O1` (centres undefined) gave a melting point of 92 to 94 °C.

Compound `CCCCCCCCCCCCCCCCCCNC(=O)OCC1(CNS(=O)(=O)CCCI)CCCO1` (centres undefined) showed a melting point of 66.5 to 67.5 °C.

In turn, `COc1ccc(S(=O)(=O)N(CC#N)c2ccc(Cl)cc2C(=O)c2ccccc2Cl)cc1OC` showed a melting point of 164 °C.

For `COc1ccc2cc(-c3ncno3)ccc2n1`, the melting point is 150 to 152 °C.

`COc1ccc(-c2csc(Nc3ccc4ccccc4n3)n2)cc1OC` returned a melting point of 257 to 259 °C.

`CNn1cc(C(=O)O)c(=O)c2ccc(C)nc21` returned a melting point of 215 to 217 °C.

In turn, `Cn1c(Cc2ccc(Cl)c(Oc3cc(C#N)cc(C#N)c3)c2F)nn(COC(=O)CCC(=O)O)c1=O` had a melting point of 142 to 143 °C.

Take `COCCS(=O)(=O)c1ccccc1S(=O)(=O)NC(=O)Nc1nc(OC)cc(OC)n1`: the melting point is 187 to 192 °C.

Compound `[N-]=[N+]=Nc1cc2ccccc2oc1=O` gave a melting point of 108 to 112 °C.

`O=C1c2ccccc2C(=O)N1CC(=O)N1c2ccccc2N(Cc2ccc(Cl)cc2)C(=O)[C@H]2CCC[C@H]21` (relative stereo) registered a melting point of 205 to 206 °C.

The compound `NS(=O)(=O)c1cc2[nH]c(=O)ccc2s1` showed a melting point of over 300 °C.

Take `CCOC(=O)CCCCOc1ccc([N+](=O)[O-])c(/C=C2\CC(=O)NC2=O)c1`: the melting point is 112 °C.

The compound `CC(C)(C)OC(=O)Nc1ccc(I)cc1[N+](=O)[O-]` had a melting point of 92 to 94 °C.

With `COc1ccc(CNC(=O)c2[nH]c3ccc(Cl)cc3c2S(=O)(=O)c2ccccc2)cc1`, the melting point lay within 205 to 206 °C.

`CCc1cccc(-c2nc(=O)c3ccccc3s2)n1` gave a melting point of 150 to 151 °C.

`c1ccc(-n2c3ccccc3c3cc4c(cc32)c2ccccc2n4-c2ccccc2)cc1` had a melting point of 306 °C.

`Cc1nc2cc(NC(=O)c3cc4cccnc4n3Cc3ccncc3)ccc2n1C` came in with a melting point of 236 to 246 °C.

`CSCc1ccc(-c2cccnc2)o1`: the melting point fell in the range of 67 to 68 °C.

On to `Oc1ccc([C@H]2CC[C@H](CCC3OCCO3)CC2)cc1`, for which the melting point turned out to be 154 °C.

Consider `CC(=O)Nc1ccc(S(=O)(=O)Nc2cc(Cl)nc(N3CCCC3)n2)cc1`, for which the melting point lay in the range of 229 to 233 °C.

Regarding `COc1ccc(-c2cn[nH]c2N)cc1OC`, the melting point fell in the range of 143 to 146 °C.

On to `O=C(O)COc1ccccc1OCCC(c1ccccc1)(c1ccccc1)c1ccccc1`, for which the melting point lay within 137 to 139 °C.

As to `O=C(CCCCCNC(=O)c1ccco1)NO`, the melting point lay in the range of 114 to 115 °C.

For `CCCCCCCCNC(=O)c1cnc2cccc(C)n2c1=O`, the melting point fell in the range of 108 to 110 °C.

With `CCC(C)(NC(=O)c1cc(Cl)c(N)c(Cl)c1)C(=O)CCl` (centres undefined), the melting point was in the range of 134 to 138 °C.

With `CN(C)c1ccc(C(=O)C(C)(C)N2CCOCC2)cc1`, the melting point is 152 to 155 °C.

`COc1cc(CN2CCN(c3ccc(O)cc3)CC2)nc(-c2ccccc2)n1` yielded a melting point of 166 to 167 °C.

Consider `CC(CNC(=O)CN1CCCC1=O)N1CCN(C)CC1` (centres undefined), for which the melting point fell in the range of 84 to 85 °C.

`Cc1c(O)c(=O)ccn1CCO` displayed a melting point of 164 to 165 °C.

In turn, `Cc1ccc(S(=O)(=O)N(F)CC(C)(C)C)cc1` gave a melting point of 58 to 62.5 °C.

`C=CN1Cc2ccccc2-c2ccc(Cl)cc2C1=O` came in with a melting point of 170 to 172 °C.

For the compound `O=C(O)c1ccc(C(=O)Nc2cc3c4c(c2)CCCC4CCC3)cc1`, the melting point fell in the range of 283 to 284 °C.

On to `COc1ccc(S(=O)(=O)Nc2ccccc2NC=O)cc1`, for which the melting point was in the range of 143 to 144 °C.

For `CC(=O)Oc1ccc(C(C)(c2ccc(OC(C)=O)cc2)c2ccc(OC(C)=O)cc2)cc1`, the melting point was 169 °C.

`CSC(C(=O)c1nsc(NC=O)n1)S(C)=O` (centres undefined) had a melting point of 130 to 132 °C.

In turn, `O=C(O)CNc1ccc(Cl)cc1C(=O)O` yielded a melting point of 182 to 183 °C.

Compound `O=C1CC2c3cc(F)ccc3CCN2C2CCCCC12` (centres undefined) showed a melting point of 130 to 136 °C.

With `CC(=O)c1ccc2c(c1)oc(=O)n2CCCCl`, the melting point was in the range of 100 to 103 °C.

Compound `CCS(=O)(=O)c1ccc(-c2cc(-c3nc(N)sc3-c3cccc(C)n3)ccn2)cc1` registered a melting point of 219 °C.

In the case of `COc1ccc(C(C)C)cc1-c1cc(-c2nnnn2CCc2ccccc2)c(O)cc1O`, the melting point fell in the range of 206 to 209 °C.

Regarding `C/C(=C\c1ccc(C(=O)O)cc1)c1ccc2c(c1)CC(C)(C)CC(C)(C)C2`, the melting point lay within 232 to 235 °C.

`Cc1nc(C)n2c1CN=C(c1ccccc1F)c1cc(Cl)ccc1-2` gave a melting point of 178 to 180 °C.

Consider `CCCn1cc(C(=O)Nc2nccs2)c2ccc(Cl)cc21`, for which the melting point fell in the range of 175 to 176 °C.

With `CCCC(=O)OC[C@H]1O[C@@H](n2ccc(OCC)nc2=O)CS1` (relative stereo), the melting point is 59 to 61 °C.

For the compound `CCCCCCCCCCCCCCCC(=O)NC(C)CO` (centres undefined), the melting point lay within 75 to 76 °C.

`CC(C)Oc1ccc(CCCCC2OC(=O)NC2=O)cc1` (centres undefined) had a melting point of 81 to 82 °C.

For the compound `Nc1ccc2[nH]c(=O)ccc2c1`, the melting point fell in the range of 116 to 118 °C.

Compound `COc1ccc(Cn2nnnc2C(=O)Nc2cc(C#N)cc(NC(=O)c3nnnn3Cc3ccc(OC)cc3)c2Cl)cc1` came in with a melting point of 223 to 225 °C.

On to `NC(=O)CCCCC1OCC(c2cccc3ccccc23)CO1` (centres undefined), for which the melting point is 158 to 160 °C.

Compound `Cc1cscc1-c1cccc2c1ccn2-c1ccnc(NC2CCC(C(=O)N3CCC(O)CC3)CC2)n1` (centres undefined) returned a melting point of 168 to 188 °C.

As to `COc1ccc(-c2nc(C(F)(F)F)c(Br)[nH]2)cc1Cl`, the melting point amounted to 228 °C.

`CNc1c(S(=O)C(F)(F)F)c(C#N)nn1-c1c(Cl)cc(C(F)(F)F)cc1Cl` (centres undefined): the melting point came out at 227 °C.

The compound `COc1ccc(N2CCN(c3c(C)c(C)c4c(c3-c3ccoc3)CC(C)(C)O4)CC2)cc1` showed a melting point of 192 to 195 °C.

As to `CCCN1C(=O)N2C[C@@H](Cc3ccccc3)N=C2c2[nH]c([C@H]3CC[C@H](CN)CC3)nc21`, the melting point fell in the range of 70 to 71 °C.

`CCOC(=O)c1cc(-c2ccc(Cl)cc2Cl)c(-c2ccc(Cl)cc2)nc1C` yielded a melting point of 114 °C.

Compound `COc1ncnc(-c2cc(NS(C)(=O)=O)c(Cl)cc2Cl)c1C#N` returned a melting point of 160 to 162 °C.

Compound `O=c1c2c(Cc3cccc(OC(F)(F)F)c3)n[nH]c2c2cccnc2n1-c1cccc(C(F)(F)F)c1` yielded a melting point of 129 to 132 °C.

Compound `COC(=O)c1c(OC(C)=O)cc(CBr)cc1OC(C)=O` displayed a melting point of 93 to 95 °C.

`CCNC(=O)NC(=S)N1N=C(c2ccc([N+](=O)[O-])cc2)c2cc3c(cc2CC1C)OCO3` (centres undefined): the melting point was 176 to 177 °C.

With `COc1cccc([C@H]2O[C@H](CC(=O)Nc3cc(CCC(=O)O)ccc3C)C(=O)N(CC(C)(C)CO)c3ccc(Cl)cc32)c1OC`, the melting point was in the range of 154 to 155 °C.

For the compound `CCOC(=O)c1sc(C)nc1SC(=O)N(C)C`, the melting point was in the range of 84.5 to 85.5 °C.

As for `O=C(O)C12C3C4C5C3C1C5C42` (centres undefined), the melting point was 154 to 155 °C.

On to `CCOC(=O)c1cc2cccc(OCc3ccccc3)c2[nH]1`, for which the melting point lay within 82 to 83 °C.
